Reference: US12371454B2, “Cyclic peptide compound having Kras inhibitory action” (priority 2019, dated 2025)
Starred links: 1 amine or outer side, 2 acyl side, 3 side chain; linkers in the order of their positions; H or OH if unused. Positions of bridges follow the written chain, without caps; N, C: chain ends. Non-standard residues stand in square brackets, D forms with d. Residues, ends and D or L forms follow the SMILES beside them. *: point of attachment. hPhe(3-Cl-4-CF3) = N[C@@H](CCc1ccc(C(F)(F)F)c(Cl)c1)C(=O)O; 3Oxa8azabicyclo(3.2.1)octane = C1CC2COCC1N2*; NMeAbu(4,4,4-F3) = CN[C@@H](CC(F)(F)F)C(=O)O; NMePhe(4-Cl) = CN[C@@H](Cc1ccc(Cl)cc1)C(=O)O; NMePhe(4-Me) = CN[C@@H](Cc1ccc(C)cc1)C(=O)O; NMePhe(3-F) = CN[C@@H](Cc1cccc(F)c1)C(=O)O; NMePhe(4-F) = CN[C@@H](Cc1ccc(F)cc1)C(=O)O; X33 = Cc1ccc(CC[C@H](N[*:1])C(=O)[*:2])cc1; NMedβ3hAla = C[C@H](CC(=O)[*:2])N(C)[*:1]; NMeAla(cPent) = CN[C@@H](CC1CCCC1)C(=O)O; NMePhe(2-F) = CN[C@@H](Cc1ccccc1F)C(=O)O; NMeGly(cPent) = CN[C@H](C(=O)O)C1CCCC1; Phe(3-I) = N[C@@H](Cc1cccc(I)c1)C(=O)O; dαMeGly(allyl) = C=CC[C@@](C)(N)C(=O)O; NMeAla(cPr) = CN[C@@H](CC1CC1)C(=O)O; NMe3Pal = CN[C@@H](Cc1cccnc1)C(=O)O; Gly(cPent) = N[C@H](C(=O)O)C1CCCC1; NMeCha = CN[C@@H](CC1CCCCC1)C(=O)O; Pro(4-oxo) = O=C1CN[C@H](C(=O)O)C1; NMeChg = CN[C@H](C(=O)O)C1CCCCC1; NMeI = CC[C@H](C)[C@H](NC)C(=O)O; NMeD = CN[C@@H](CC(=O)O)C(=O)O; NMeL = CN[C@@H](CC(C)C)C(=O)O; NEtAla = CCN[C@@H](C)C(=O)O; NMeV = CN[C@H](C(=O)O)C(C)C; NMeS = CN[C@@H](CO)C(=O)O; Morpholide = C1CN(*)CCO1; NMeA = CN[C@@H](C)C(=O)O; Nle = CCCC[C@H](N)C(=O)O; Piperidide = C1CCN(*)CC1; Ac5c = NC1(C(=O)O)CCCC1; Aze = O=C(O)[C@@H]1CCN1; Sar = CNCC(=O)O

Columns and labels:
[1] = system: Human pancreatic cancer cell line AsPC-1; experiment: Measurement of AsPC-1 cell growth inhibition (AsPC-1 CGI); type: cell-based; details: 96 h
How it was run: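 AsPC-1 cells in 15% FBS RPMI-1640 were exposed to test compound for 96 hours at 37° C, with CellTiter-Glo as endpoint.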

[2] = biological target: T1, Kras and SOS1 (biotin-tagged human Kras loaded with GDP, His-tagged human SOS1) (Homo sapiens, UniProt P01116, G12D); experiment: Protein-protein interaction inhibition between Kras and SOS1 (KrasGl2D-SOS PPI) using AlphaScreen; type: binding; details: AlphaScreen; biotin-tagged human Kras loaded with GDP, His-tagged human SOS1; read-out: KRAS G12D-SOS PPI IC50
T1 construct: made in house; host or cells: E. coli (stated for Kras only)
T1 sequence (P01116 1-188 isoform P01116-2 G12D): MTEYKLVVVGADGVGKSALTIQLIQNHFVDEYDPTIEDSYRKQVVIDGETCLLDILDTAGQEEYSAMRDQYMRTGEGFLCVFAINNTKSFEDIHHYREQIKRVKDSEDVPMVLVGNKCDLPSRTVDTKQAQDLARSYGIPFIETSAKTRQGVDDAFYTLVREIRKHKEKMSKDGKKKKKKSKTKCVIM
How it was run: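 Read-out is acceptor-bead light at 520-620 nm, arising when 680 nm-irradiated nickel donor beads pass singlet oxygen to streptavidin acceptors. The bead pair links His-tagged SOS1 with biotin-tagged, GDP-bound Kras from E. coli.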

| Compound | IC50 [1] [nM] | IC50 [2] [nM] |
| --- | --- | --- |
| CCCC[C@@H]1NC(=O)[C@H](Cc2cccc(I)c2)NC(=O)CN(C)C(=O)[C@H](Cc2ccc(Cl)cc2)N(C)C(=O)CN(C)C(=O)CN(C)C(=O)[C@H]([C@@H](C)CC)NC(=O)[C@H](CC(C)C)N(C)C(=O)C[C@@H](C(=O)N2CCCCC2)N(C)C(=O)[C@H](CC(C)C)NC(=O)[C@H](Cc2ccc(F)cc2)N(C)C1=O [Compound 997] ([NMeL]I[Sar][Sar][NMePhe(4-Cl)][Sar][Phe(3-I)][Nle][NMePhe(4-F)]L[NMeD]-Piperidide; lactam N-11) | 100 to 500 | 24 |
| CC[C@H](C)[C@@H]1NC(=O)[C@H](CC(C)C)N(C)C(=O)C[C@@H](C(=O)N(C)C)N(C)C(=O)[C@H]([C@@H](C)CC)N(C)C(=O)C2(CCCC2)NC(=O)[C@H](Cc2cccc(F)c2)N(C)C(=O)[C@H](CCc2ccc(C(F)(F)F)c(Cl)c2)NC(=O)CN(C)C(=O)[C@H](Cc2ccc(C)cc2)N(C)C(=O)[C@@H]2CCN2C(=O)[C@H](C)N(C)C1=O [Compound 1000] ([NMeL]I[NMeA][Aze][NMePhe(4-Me)][Sar][hPhe(3-Cl-4-CF3)][NMePhe(3-F)][Ac5c][NMeI][NMeD]-NMe2; lactam N-11) | 20 to 50 | 2.6 |
| CC[C@H](C)[C@@H]1NC(=O)[C@H](CC(F)(F)F)N(C)C(=O)C[C@@H](C(=O)N2CCOCC2)N(C)C(=O)[C@H](C2CCCCC2)N(C)C(=O)C2(CCCC2)NC(=O)[C@@H]2CCCN2C(=O)[C@H](CCc2ccc(C(F)(F)F)c(Cl)c2)NC(=O)CN(C)C(=O)[C@H](Cc2ccc(C)cc2)N(C)C(=O)CN(C)C(=O)CN(C)C1=O [Compound 1001] ([NMeAbu(4,4,4-F3)]I[Sar][Sar][NMePhe(4-Me)][Sar][hPhe(3-Cl-4-CF3)]P[Ac5c][NMeChg][NMeD]-Morpholide; lactam N-11) | 20 to 50 | 0.44 |
| CC[C@H](C)[C@@H]1NC(=O)[C@H](CC(C)C)N(C)C(=O)C[C@@H](C)N(C)C(=O)[C@H](CC2CC2)N(C)C(=O)C2(CCCC2)NC(=O)[C@@H]2CCCN2C(=O)[C@H](CCc2ccc(C(F)(F)F)c(Cl)c2)NC(=O)CN(C)C(=O)[C@H](CC2CCCCC2)N(C)C(=O)CN(C)C(=O)CN(C)C1=O [Compound 1019] (cyclo([Ac5c][NMeAla(cPr)][NMedβ3hAla][NMeL]I[Sar][Sar][NMeCha][Sar][hPhe(3-Cl-4-CF3)]P)) | 100 to 500 | 14 |
| CC[C@H](C)[C@@H]1NC(=O)[C@H](CC(C)C)N(C)C(=O)C[C@@H](C(=O)N2CCCCC2)N(C)C(=O)[C@H](C2CCCCC2)N(C)C(=O)C2(CCCC2)NC(=O)[C@@H]2CC(=O)CN2C(=O)[C@H](CCc2ccc(C(F)(F)F)c(Cl)c2)NC(=O)CN(C)C(=O)[C@H](CC2CCCCC2)N(C)C(=O)CN(C)C(=O)CN(C)C1=O [Compound 1022] ([NMeL]I[Sar][Sar][NMeCha][Sar][hPhe(3-Cl-4-CF3)][Pro(4-oxo)][Ac5c][NMeChg][NMeD]-Piperidide; lactam N-11) | 100 to 500 | 0.42 |
| CCCC[C@@H]1NC(=O)[C@H](Cc2cccc(I)c2)NC(=O)CN(C)C(=O)[C@H](Cc2ccc(Cl)cc2)N(C)C(=O)CN(C)C(=O)CN(C)C(=O)[C@H]([C@@H](C)CC)NC(=O)[C@H](CC(C)C)N(C)C(=O)C[C@@H](C(=O)N2CCCCC2)N(C)C(=O)[C@H](CC(C)C)NC(=O)[C@H](Cc2ccccc2F)N(C)C1=O [Compound 1035] ([NMeL]I[Sar][Sar][NMePhe(4-Cl)][Sar][Phe(3-I)][Nle][NMePhe(2-F)]L[NMeD]-Piperidide; lactam N-11) | 100 to 500 | 11 |
| CC[C@H](C)[C@@H]1NC(=O)[C@H](COC)N(C)C(=O)C[C@@H](C(=O)N2CCCCC2)N(C)C(=O)[C@H](C2CCCCC2)N(C)C(=O)C2(CCCC2)NC(=O)[C@@H]2CCCN2C(=O)[C@H](CCc2ccc(C(F)(F)F)c(Cl)c2)NC(=O)CN(C)C(=O)[C@H](CC2CCCCC2)N(C)C(=O)CN(C)C(=O)CN(C)C1=O [Compound 1037] ([NMeS](Me)I[Sar][Sar][NMeCha][Sar][hPhe(3-Cl-4-CF3)]P[Ac5c][NMeChg][NMeD]-Piperidide; lactam N-11) | 50 to 100 | 0.66 |
| C=CC[C@@]1(C)NC(=O)[C@@H]2CCCN2C(=O)[C@H](CCc2ccc(C(F)(F)F)c(Cl)c2)NC(=O)CN(C)C(=O)[C@H](CC2CCCCC2)N(C)C(=O)CN(C)C(=O)CN(C)C(=O)[C@H]([C@@H](C)CC)NC(=O)[C@H](CC(C)C)N(C)C(=O)C[C@@H](C)N(C)C(=O)[C@H](C(C)C)N(C)C1=O [Compound 1038] (cyclo(I[Sar][Sar][NMeCha][Sar][hPhe(3-Cl-4-CF3)]P[dαMeGly(allyl)][NMeV][NMedβ3hAla][NMeL])) | 100 to 500 | 18 |
| CC[C@H](C)[C@@H]1NC(=O)[C@H](C)N(CC)C(=O)C[C@@H](C(=O)N2CCCCC2)N(C)C(=O)[C@H](C(C)C)N(C)C(=O)C2(CCCC2)NC(=O)[C@@H]2CCCN2C(=O)[C@H](CCc2ccc(C(F)(F)F)c(Cl)c2)NC(=O)CN(C)C(=O)[C@H](CC2CCCCC2)N(C)C(=O)CN(C)C(=O)CN(C)C1=O [Compound 1051] ([NEtAla]I[Sar][Sar][NMeCha][Sar][hPhe(3-Cl-4-CF3)]P[Ac5c][NMeV][NMeD]-Piperidide; lactam N-11) | 100 to 500 | 2.9 |
| CC[C@H](C)[C@@H]1NC(=O)[C@H](C)N(C)C(=O)C[C@@H](C(=O)N2CCCCC2)N(C)C(=O)[C@H](C2CCCCC2)N(C)C(=O)C2(CCCC2)NC(=O)[C@@H]2CCCN2C(=O)[C@H](CCc2ccc(C)cc2)NC(=O)CN(C)C(=O)[C@H](CC2CCCCC2)N(C)C(=O)CN(C)C(=O)CN(C)C1=O [Compound 1055] ([NMeA]I[Sar][Sar][NMeCha][Sar][X33]P[Ac5c][NMeChg][NMeD]-Piperidide; lactam N-11) | 100 to 500 | 2.2 |
| CC[C@H](C)[C@@H]1NC(=O)[C@H](CC(F)(F)F)N(C)C(=O)C[C@@H](C(=O)N2C3CCC2COC3)N(C)C(=O)[C@H](C2CCCCC2)N(C)C(=O)C2(CCCC2)NC(=O)[C@@H]2CCCN2C(=O)[C@H](CCc2ccc(C(F)(F)F)c(Cl)c2)NC(=O)CN(C)C(=O)[C@H](CC2CCCC2)N(C)C(=O)CN(C)C(=O)CN(C)C1=O [Compound 1057] ([NMeAbu(4,4,4-F3)]I[Sar][Sar][NMeAla(cPent)][Sar][hPhe(3-Cl-4-CF3)]P[Ac5c][NMeChg][NMeD]-{3Oxa8azabicyclo(3.2.1)octane}; lactam N-11) | 100 to 500 | 1.2 |
| CC(C)C[C@H]1C(=O)N[C@@H](C2CCCC2)C(=O)N(C)CC(=O)N(C)CC(=O)N(C)[C@@H](CC2CCCCC2)C(=O)N(C)CC(=O)N[C@@H](CCc2ccc(C(F)(F)F)c(Cl)c2)C(=O)N2CCC[C@H]2C(=O)NC2(CCCC2)C(=O)N(C)[C@@H](C(C)C)C(=O)N(C)[C@H](C(=O)N2CCCCC2)CC(=O)N1C [Compound 1064] ([NMeL][Gly(cPent)][Sar][Sar][NMeCha][Sar][hPhe(3-Cl-4-CF3)]P[Ac5c][NMeV][NMeD]-Piperidide; lactam N-11) | 100 to 500 | 4.3 |
| CC[C@H](C)[C@@H]1NC(=O)[C@H](CC(C)C)N(C)C(=O)C[C@@H](C(=O)N(C)C)N(C)C(=O)[C@H](C2CCCC2)N(C)C(=O)C2(CCCC2)NC(=O)[C@H](Cc2cccnc2)N(C)C(=O)[C@H](CCc2ccc(C(F)(F)F)c(Cl)c2)NC(=O)CN(C)C(=O)[C@H](CC2CCCCC2)N(C)C(=O)[C@@H]2CCN2C(=O)[C@H](C)N(C)C1=O [Compound 1071] ([NMeL]I[NMeA][Aze][NMeCha][Sar][hPhe(3-Cl-4-CF3)][NMe3Pal][Ac5c][NMeGly(cPent)][NMeD]-NMe2; lactam N-11) | 100 to 500 | 1.3 |
